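Protocol summary: plate cells (96-well), add compound at 5 concentrations, incubate 48 h, interpolate endpoints linearly. The concentration for 50% growth inhibition is given as GI50.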 The source made the active and inactive calls. Rule as the data show it: active = GI50 up to about 1.1 µM and inactive = higher.
Columns and labels:
Test in all cases: DTP human tumour cell line panel, 48 h
M19-MEL = system: M19-MEL
NCI-H460 = system: NCI-H460
SF-268 = system: SF-268
NCI-H522 = system: NCI-H522
MOLT-4 = system: MOLT-4
UO-31 = system: UO-31
HL-60 = system: HL-60
TK-10 = system: TK-10
HCT-15 = system: HCT-15
HCC 2998 = system: HCC 2998
SK-MEL-2 = system: SK-MEL-2
HOP-62 = system: HOP-62
UACC-62 = system: UACC-62
SNB-19 = system: SNB-19
OVCAR-4 = system: OVCAR-4
NCI-H226 = system: NCI-H226
HT-29 = system: HT-29
A498 = system: A498
LOX IMVI = system: LOX IMVI
COLO 205 = system: COLO 205
NCI-H23 = system: NCI-H23
KM12 = system: KM12
CAKI-1 = system: CAKI-1
DMS-114 = system: DMS-114
LXFL 529 = system: LXFL 529
SW-620 = system: SW-620
ACHN = system: ACHN
OVCAR-5 = system: OVCAR-5
OVCAR-3 = system: OVCAR-3
RXF 393 = system: RXF 393
SF-539 = system: SF-539
Malme-3M = system: Malme-3M
UACC-257 = system: UACC-257
K562 = system: K562
U-251 = system: U-251
SK-MEL-5 = system: SK-MEL-5
IGROV-1 = system: IGROV-1
XF498 = system: XF498
SK-OV-3 = system: SK-OV-3
A549 = system: A549
SNB-75 = system: SNB-75
SF-295 = system: SF-295
M14 = system: M14
786-0 = system: 786-0
SN12C = system: SN12C
SK-MEL-28 = system: SK-MEL-28
HOP-18 = system: HOP-18
SR = system: SR
DMS-273 = system: DMS-273
HCT-116 = system: HCT-116
HOP-92 = system: HOP-92
CCRF-CEM = system: CCRF-CEM
OVCAR-8 = system: OVCAR-8
EKVX = system: EKVX
KM-20L2 = system: KM-20L2
SNB-78 = system: SNB-78
RPMI-8226 = system: RPMI-8226
DLD-1 = system: DLD-1

## NS(=O)(=O)c1ccc(Nc2c3ccccc3nc3c(C(=O)N4CCN(CCO)CC4)cccc23)cc1
M19-MEL
  GI50: > 100 µM (inactive)
NCI-H460
  GI50: > 100 µM (inactive)
SF-268
  GI50: > 100 µM (inactive)
NCI-H522
  GI50: 80.9 µM (inactive)
MOLT-4
  GI50: 40.2 µM (inactive)
UO-31
  GI50: > 100 µM (inactive)
HL-60
  GI50: 29.2 µM (inactive)
TK-10
  GI50: > 100 µM (inactive)
HCT-15
  GI50: > 100 µM
HCC 2998
  GI50: > 100 µM (inactive)
SK-MEL-2
  GI50: > 100 µM (inactive)
HOP-62
  GI50: > 100 µM (inactive)
UACC-62
  GI50: > 100 µM (inactive)
SNB-19
  GI50: > 100 µM (inactive)
OVCAR-4
  GI50: > 100 µM (inactive)
NCI-H226
  GI50: > 100 µM (inactive)
HT-29
  GI50: 71.8 µM (inactive)
A498
  GI50: > 100 µM (inactive)
LOX IMVI
  GI50: 92.7 µM (inactive)
COLO 205
  GI50: > 100 µM (inactive)
NCI-H23
  GI50: > 100 µM (inactive)
KM12
  GI50: 93.5 µM (inactive)
CAKI-1
  GI50: > 100 µM (inactive)
DMS-114
  GI50: 75.5 µM (inactive)
LXFL 529
  GI50: 60.3 µM (inactive)
SW-620
  GI50: > 100 µM (inactive)
ACHN
  GI50: > 100 µM (inactive)
OVCAR-5
  GI50: > 100 µM (inactive)
OVCAR-3
  GI50: > 100 µM (inactive)
RXF 393
  GI50: > 100 µM (inactive)
SF-539
  GI50: > 100 µM (inactive)
Malme-3M
  GI50: > 100 µM (inactive)
UACC-257
  GI50: > 100 µM (inactive)
K562
  GI50: 53.2 µM (inactive)
U-251
  GI50: > 100 µM (inactive)
SK-MEL-5
  GI50: > 100 µM (inactive)
IGROV-1
  GI50: > 100 µM (inactive)
XF498
  GI50: > 100 µM (inactive)
SK-OV-3
  GI50: > 100 µM (inactive)
A549
  GI50: > 100 µM (inactive)
SNB-75
  GI50: 52.7 µM (inactive)
SF-295
  GI50: > 100 µM (inactive)
M14
  GI50: > 100 µM (inactive)
786-0
  GI50: > 100 µM (inactive)
SN12C
  GI50: > 100 µM (inactive)
SK-MEL-28
  GI50: > 100 µM (inactive)
HOP-18
  GI50: > 100 µM (inactive)
SR
  GI50: 74.1 µM (inactive)
DMS-273
  GI50: 82.6 µM (inactive)
HCT-116
  GI50: > 100 µM (inactive)
HOP-92
  GI50: > 100 µM (inactive)
CCRF-CEM
  GI50: 95.3 µM (inactive)
OVCAR-8
  GI50: > 100 µM (inactive)
EKVX
  GI50: > 100 µM (inactive)
KM-20L2
  GI50: > 100 µM (inactive)
SNB-78
  GI50: 69.3 µM (inactive)

## CN1CN(C(=O)N2CN(C)C(=O)N(C)C2)CN(C)C1=O
M19-MEL
  GI50: > 100 µM (inactive)
SF-268
  GI50: > 100 µM (inactive)
NCI-H522
  GI50: > 100 µM (inactive)
MOLT-4
  GI50: > 100 µM (inactive)
UO-31
  GI50: > 100 µM (inactive)
HL-60
  GI50: > 100 µM (inactive)
HCT-15
  GI50: > 100 µM
HCC 2998
  GI50: > 100 µM (inactive)
SK-MEL-2
  GI50: > 100 µM (inactive)
HOP-62
  GI50: > 100 µM (inactive)
UACC-62
  GI50: > 100 µM (inactive)
SNB-19
  GI50: > 100 µM (inactive)
NCI-H226
  GI50: > 100 µM (inactive)
HT-29
  GI50: > 100 µM (inactive)
A498
  GI50: > 100 µM (inactive)
LOX IMVI
  GI50: > 100 µM (inactive)
COLO 205
  GI50: > 100 µM (inactive)
KM12
  GI50: > 100 µM (inactive)
CAKI-1
  GI50: > 100 µM (inactive)
DMS-114
  GI50: > 100 µM (inactive)
LXFL 529
  GI50: > 100 µM (inactive)
SW-620
  GI50: > 100 µM (inactive)
ACHN
  GI50: > 100 µM (inactive)
OVCAR-5
  GI50: > 100 µM (inactive)
OVCAR-3
  GI50: > 100 µM (inactive)
RPMI-8226
  GI50: > 100 µM (inactive)
SF-539
  GI50: > 100 µM (inactive)
Malme-3M
  GI50: > 100 µM (inactive)
UACC-257
  GI50: > 100 µM (inactive)
K562
  GI50: > 100 µM (inactive)
IGROV-1
  GI50: > 100 µM (inactive)
XF498
  GI50: > 100 µM (inactive)
SK-OV-3
  GI50: > 100 µM (inactive)
A549
  GI50: > 100 µM (inactive)
SNB-75
  GI50: > 100 µM (inactive)
SF-295
  GI50: > 100 µM (inactive)
M14
  GI50: > 100 µM (inactive)
SN12C
  GI50: > 100 µM (inactive)
SK-MEL-28
  GI50: > 100 µM (inactive)
DLD-1
  GI50: > 100 µM (inactive)
HOP-18
  GI50: > 100 µM (inactive)
HCT-116
  GI50: > 100 µM (inactive)
CCRF-CEM
  GI50: > 100 µM (inactive)
OVCAR-8
  GI50: > 100 µM (inactive)
EKVX
  GI50: > 100 µM (inactive)
KM-20L2
  GI50: > 100 µM (inactive)
SNB-78
  GI50: > 100 µM (inactive)

## Clc1ccc(-n2nnc(C3=NCCN3)c2-c2ccccc2)cc1
M19-MEL
  GI50: > 100 µM (inactive)
NCI-H460
  GI50: > 100 µM (inactive)
SF-268
  GI50: > 100 µM (inactive)
NCI-H522
  GI50: > 100 µM (inactive)
MOLT-4
  GI50: 78.5 µM (inactive)
UO-31
  GI50: 43.3 µM (inactive)
HL-60
  GI50: > 100 µM (inactive)
TK-10
  GI50: 66.8 µM (inactive)
HCT-15
  GI50: > 100 µM
HCC 2998
  GI50: > 100 µM (inactive)
SK-MEL-2
  GI50: > 100 µM (inactive)
HOP-62
  GI50: > 100 µM (inactive)
UACC-62
  GI50: > 100 µM (inactive)
SNB-19
  GI50: > 100 µM (inactive)
OVCAR-4
  GI50: > 100 µM (inactive)
NCI-H226
  GI50: > 100 µM (inactive)
HT-29
  GI50: > 100 µM (inactive)
A498
  GI50: > 100 µM (inactive)
LOX IMVI
  GI50: > 100 µM (inactive)
COLO 205
  GI50: > 100 µM (inactive)
NCI-H23
  GI50: > 100 µM (inactive)
KM12
  GI50: > 100 µM (inactive)
CAKI-1
  GI50: > 100 µM (inactive)
DMS-114
  GI50: > 100 µM (inactive)
LXFL 529
  GI50: > 100 µM (inactive)
SW-620
  GI50: > 100 µM (inactive)
ACHN
  GI50: > 100 µM (inactive)
OVCAR-5
  GI50: > 100 µM (inactive)
OVCAR-3
  GI50: > 100 µM (inactive)
RPMI-8226
  GI50: > 100 µM (inactive)
RXF 393
  GI50: > 100 µM (inactive)
SF-539
  GI50: > 100 µM (inactive)
Malme-3M
  GI50: > 100 µM (inactive)
UACC-257
  GI50: > 100 µM (inactive)
K562
  GI50: > 100 µM (inactive)
U-251
  GI50: > 100 µM (inactive)
SK-MEL-5
  GI50: 86.9 µM (inactive)
IGROV-1
  GI50: > 100 µM (inactive)
XF498
  GI50: > 100 µM (inactive)
SK-OV-3
  GI50: > 100 µM (inactive)
A549
  GI50: > 100 µM (inactive)
SNB-75
  GI50: 47.3 µM (inactive)
SF-295
  GI50: > 100 µM (inactive)
M14
  GI50: > 100 µM (inactive)
786-0
  GI50: > 100 µM (inactive)
SN12C
  GI50: > 100 µM (inactive)
SK-MEL-28
  GI50: > 100 µM (inactive)
DLD-1
  GI50: > 100 µM (inactive)
HOP-18
  GI50: > 100 µM (inactive)
SR
  GI50: > 100 µM (inactive)
DMS-273
  GI50: > 100 µM (inactive)
HCT-116
  GI50: > 100 µM (inactive)
HOP-92
  GI50: 68.7 µM (inactive)
CCRF-CEM
  GI50: > 100 µM (inactive)
OVCAR-8
  GI50: > 100 µM (inactive)
EKVX
  GI50: > 100 µM (inactive)
KM-20L2
  GI50: > 100 µM (inactive)
SNB-78
  GI50: > 100 µM (inactive)

— ChEMBL document CHEMBL1201862, “PubChem BioAssay data set” (2004)
